ChEMBL document CHEMBL2363022, “Malaria Box Schistosomiasis Screening Data” (2013)

Experiments:
Format in all cases: functional
Parameters in all cases: scale not given here
Schistosoma mansoni [1] = system: Schistosoma mansoni
Schistosoma mansoni [2] = system: Schistosoma mansoni; remark: listed apart in the source
Schistosoma mansoni [3] = system: Schistosoma mansoni; remark: listed apart in the source

| SMILES | Toxicity (Schistosoma mansoni [1]) | Toxicity (Schistosoma mansoni [2]) | Toxicity (Schistosoma mansoni [3]) |
| --- | --- | --- | --- |
| CCOc1cc2c(cc1OCC)C(c1cc(OC)c(O)cc1Cl)NCC2 (stereo not given) | 0 | 0 | 0 |
| COc1ccc(C2N(C)c3ccccc3N2C)cc1 | 0 | 0 | 0 |
| CCCCCn1c(=N)n(CC(O)COc2cccc(C)c2)c2ccccc21.Cl (stereo not given) | 2 | 4 | 4 |
| Oc1c2c(nc3cc(-c4ccccc4)nn13)CCCC2 | 0 | 0 | 0 |
| O=C(NCc1ccco1)C1CCN(S(=O)(=O)c2ccc(Br)cc2)CC1 | 0 | 0 | 0 |
| CCOc1cc(CNC(C)C(O)c2ccccc2)cc(Cl)c1OCC (stereo not given) | 0 | 0 | 1 |
| Cc1cc(Nc2ccc3ccccc3c2)n2ncnc2n1 | 0 | 1 | 1 |
| CCCCN(CCCC)S(=O)(=O)c1ccc(NC(=O)c2ccco2)cc1 | 0 | 0 | 0 |
| c1ccc2cc3c(Nc4ccc(N5CCOCC5)cc4)ccnc3cc2c1 | 2 | 4 | 4 |
| COc1ccc2nc(N)nc(C)c2c1 | 0 | 0 | 4 |
| O=C(NC1CCCC1)c1ccc(N2CCC(NCc3cccc(C(F)(F)F)c3)CC2)cc1 | 0 | 0 | 1 |
| CC1CN(C(=O)c2sc3ccccc3c2Cl)CC(C)O1 (stereo not given) | 0 | 0 | 0 |
| Cc1cc(N(C)C)nc(Nc2ccc(NC(=O)Nc3ccccc3)cc2)n1 | 0 | 3 | 3 |
| CC(C)c1ccc(CNCC(O)c2ccccc2)cc1.Cl (stereo not given) | 0 | 0 | 0 |
| CCCCOC(=O)c1ccc(Nc2cc(C)nc3ccc(OC)cc23)cc1 | 2 | 0 | 4 |
| O=[N+]([O-])c1ccc(C=NNc2nc3ccccc3[nH]2)cc1 | 0 | 1 | 0 |
| CCOc1ccc(N2C(N)=NC(N)=NC2(C)C)cc1.Cl | 0 | 0 | 0 |
| CCOC(=O)C1CCN(C(=O)CN2C(=O)c3ccccc3C2c2c[nH]c3ccccc23)CC1 (stereo not given) | 0 | 0 | 0 |
| CCOC(=O)c1cn(CC)c2cc(N(C)CCc3ccc(OC)c(OC)c3)c(F)cc2c1=O | 0 | 0 | 0 |
| O=C(NCc1ccco1)C1CCN(S(=O)(=O)c2ccc(Cl)cc2)CC1 | 0 | 0 | 0 |
| CCCCCCc1cc2cc(-c3csc(C=Cc4ccccc4)n3)c(=O)oc2cc1O | 0 | 0 | 0 |
| Cn1c(=O)c2cc(C(=O)NCCCN3CCCCCC3)sc2c2ccccc21 | 0 | 0 | 0 |
| CCCc1c(CC)c(=N)c2ccccc2n1C | 1 | 0 | 0 |
| COc1cc(SC)ccc1C(=O)N1CCCC(C)C1 (stereo not given) | 0 | 0 | 0 |
| COc1ccc(C(=O)NC(c2ccc(Cl)cc2Cl)c2cc(Cl)c3cccnc3c2O)cc1 (stereo not given) | 0 | 0 | 0 |

| SMILES | Toxicity (Schistosoma mansoni [1]) | Toxicity (Schistosoma mansoni [2]) | Toxicity (Schistosoma mansoni [3]) |
| --- | --- | --- | --- |
| Nc1ccc(-c2nc3cc(Cc4ccc5[nH]c(-c6ccc(N)cc6)nc5c4)ccc3[nH]2)cc1 | 1 | 1 | 1 |
| CCN(CC)c1cc(C)c2cc(NC(=O)c3cccc(OC)c3)ccc2n1 | 2 | 0 | 0 |
| CCOC(=O)C1=C(C)N=c2sc(=Cc3ccccc3O)c(=O)n2C1c1ccc(OC)c2ccccc12 (stereo not given) | 0 | 0 | 4 |
| Cc1ccc(N2C3c4ccccc4N(S(=O)(=O)c4ccc(C)cc4)C2c2ccccc2N3S(=O)(=O)c2ccc(C)cc2)cc1 | 0 | 0 | 0 |
| O=C(NC1CCN(Cc2ccccc2)CC1)c1cc(-c2ccncc2)nc2ccc(Cl)cc12 | 0 | 0 | 2 |
| Cc1ccc(Cn2c(N3CCC(C(=O)NCc4cccs4)CC3)nc3ccccc32)cc1 | 0 | 0 | 0 |
| COc1ccc(C(=O)NC(c2ccccc2Cl)c2cc(Cl)c3cccnc3c2O)cc1 (stereo not given) | 0 | 2 | 4 |
| COc1ccc2nc(C)cc(Nc3cccc(O)c3)c2c1.Cl | 2 | 0 | 0 |
| CCOc1cccc2sc(N(Cc3cccnc3)C(=O)C3CCCCC3)nc12 | 0 | 0 | 0 |
| CCOc1ccc(-c2nc(NC(=O)c3cccc(S(C)(=O)=O)c3)sc2C)cc1 | 0 | 0 | 0 |
| Cc1ccc(Cl)cc1N1CCN(CCCNC(=O)C2CCN(c3nc4ccccc4[nH]3)CC2)CC1 | 0 | 0 | 3 |
| Cc1cc(NCCN2CCCCC2)c2ccc3ccccc3c2n1 | 4 | 4 | 4 |
| O=C(NC1CCN(Cc2ccccc2)CC1)c1cc(-c2cccnc2)nc2ccc(Cl)cc12 | 0 | 0 | 0 |
| c1ccc2c(NCCc3c[nH]c4ccccc34)c3ccccc3nc2c1 | 3 | 4 | 4 |
| COc1ccc(/C=C2/SC(=Nc3ccccc3)NC2=O)cc1 | 0 | 0 | 0 |
| Cc1ccc(F)cc1NC(=O)c1cc(Cl)ccc1Nc1ccccc1 | 0 | 0 | 0 |
| C=CCc1c(C)nc2ccccc2c1O | 0 | 0 | 0 |
| CCOc1ccccc1CNC(=O)C1c2ccccc2C(=O)N(CC(C)C)C1c1cccs1 (stereo not given) | 0 | 0 | 4 |
| Oc1ccc(Cl)cc1CNc1nc2ccccc2[nH]1 | 0 | 0 | 0 |
| Cc1ccc(N2C(=O)C3C(C2=O)C2(c4ccccc4)C(=O)C3(c3ccccc3)C(c3ccccc3)=C2c2ccccc2)cc1 (stereo not given) | 1 | 1 | 1 |
| COc1ccc2sc(N(Cc3cccnc3)C(=O)c3ccc(C#N)cc3)nc2c1 | 0 | 0 | 0 |
| COc1cccc(C(=O)NC(c2ccc(C)cc2)c2cc(Cl)c3cccnc3c2O)c1 (stereo not given) | 1 | 4 | 4 |
| CN(C)c1ccc(-c2nc3cc(N)ccc3[nH]2)cc1 | 0 | 0 | 0 |
| CC(Oc1ccc(NC(=O)c2cccs2)cc1)C(=O)c1ccc(Cl)cc1 (stereo not given) | 0 | 0 | 0 |
| COc1cccc(NC(=O)Cn2c(C)c(C#N)c3ccccc32)c1 | 0 | 0 | 0 |
